Experimental data reported in US6537797B1, “Compositions and methods useful in bioremediation of polychlorinated biphenyls” (Indiana University, Advanced Research and Technology …, priority 1999, dated 2003).

Experiments:
Assay type in all cases: cell-based
bacterial strain SK-3 [1] = assay: Growth substrate tests in liquid medium; details: initial concentration 100 parts per million, except chlorobenzoate 2-3 millimolar
Description: (§1) The ability of the four isolated strains to grow on selected polychlorobiphenyls as a sole carbon source was assessed.
(§2) (All tests were conducted in a liquid medium. The initial concentration of the organic substrate was 100 parts per million, except chlorobenzoate, which was 2-3 millimolar).

bacterial strain SK-2 = assay: Growth substrate tests in liquid medium; details: initial concentration 100 parts per million, except chlorobenzoate 2-3 millimolar
Description: as §1, §2

bacterial strain SK-1 = assay: Growth substrate tests in liquid medium; details: initial concentration 100 parts per million, except chlorobenzoate 2-3 millimolar
Description: as §1, §2

bacterial strain SK-4 [2] = assay: Growth substrate tests in liquid medium; details: initial concentration 100 parts per million, except chlorobenzoate 2-3 millimolar
Description: as §1, §2

bacterial strain SK-4 [3] = assay: Characterization of SK-4: growth on and degradation of 2,2′-DCBP and 2,4′-DCBP; details: 1.5×10^7 cells per milliliter
Description: The same methods for determining concentrations of analytes and for the incubation of the bacterial strain with growth substrate described herein for the previous analyses were used in the experiments to characterize SK-4. The concentration of SK-4 cells in the experiments was 1.5×10^7 cells per milliliter and the concentration of 2,2′-DCBP or 2,4′-DCBP was 100 milligrams per liter. […] Ortho-substituted congeners are common degradation products of anaerobic reductive dechlorination of more highly chlorinated PCBs (PCBs comprising more than two chlorine atoms) by anaerobic bacteria.
2,2′-DCBP was supplied at a concentration of 100 milligrams per liter dissolved in heptamethyl nonane (HMN), a non-biodegradable PCB solvent. Controls contained HMN but lacked 2,2′-DCBP.

[4] = system: consortia of bacterial strains from PCB-contaminated tertiary lagoon sludge; assay: Degradation of selected PCB congeners in aerobic enrichment cultures; details: 100 ppm (w/v) mixture of five PCB congeners, with or without biphenyl cosubstrate; hexane extraction 45 days after inoculation, GC
Source text: A consortia of bacterial strains was isolated from tertiary lagoon sludge that was contaminated with PCBs for over twenty five years. The sludge was collected from the Winston-Thomas sewage treatment plant in Bloomington, Ind. PCB-degrading strains were enriched using a minimal medium comprising a 100 ppm (w/v) mixture of the following five PCB congeners as the carbon source: 2,3-dichlorobiphenyl (DCBP), 2,4,4′-trichlorobiphenyl (TCBP), 2,4,6-trichlorobiphenyl, 2,2′,5,5′-tetrachlorobiphenyl, and 2,2′,4,4′,5,5′-hexachlorobiphenyl. Biphenyl was also added to the medium in some samples as an additional carbon source to stimulate the cometabolism of biphenyl and the PCBs. About 30-35 milliliters of the medium was inoculated with 5-10 milliliters of PCB-contaminated sludge and incubated in 160-mL serum bottles sealed with Teflon-coated stoppers. The bottles were incubated horizontally on a shaker table at room temperature. The headspace in the bottles was purged with air once a week to maintain aerobic conditions. Every 4-6 weeks, 10% of the culture was transferred to fresh medium. […] The concentrations of the PCB congeners were determined by extracting bottles with hexane 45 days after inoculation (a single bottle extraction), and analyzing hexane extracts by gas chromatography using a DB-5 column (J&W Scientific, Folsum, Calif.) and an electron capture detector. The results from this analysis are depicted in FIG. 1.

bacterial strain SK-3 [5] = assay: Characterization of SK-3: growth on and degradation of chlorobiphenyls and chlorobenzoates; details: for Chloride and chlorobenzoic acid (CBA) formed on degradation by SK-3: 88 hours, 23° C., aerobic, shaker table
Description: The concentrations of chlorobenzoates and dichlorobiphenyls were assessed after hexane extraction of bottles using gas chromatography analysis of the extracts with an electron capture detector. Chlorobenzoates were analyzed using standard columns after derivitization with pentafluorobenzyl bromide. Dichlorobiphenyls were analyzed using a DB-5 column (J&W Scientific, Fulsom, Calif.).
The results from this experiment are depicted in FIG. 5.
The growth of SK-3 on 4-chlorobiphenyl (4-CB) was compared with growth on its non-chlorinated form, biphenyl. […] The results from this experiment are depicted in FIG. 6. The concentration of chloride ion was determined using ion chromatography on a standard Dionex ion chromatography column. The concentration of 4-CB was assessed after hexane extraction of bottles by analyzing the hexane extracts using gas chromatography on a DB-5 column (J&W Scientific, Fulsom, Calif.) and an electron capture detector.
The growth of SK-3 on chlorobenzoates was assessed. […] The results from this experiment are depicted in FIG. 7.
The degradation of three different monochlorobiphenyls, (2-CB, 3-CB, and 4-CB) by SK-3 was assessed at 23° C. under aerobic conditions on a shaker table. After incubation of SK-3 with the selected monochlorobiphenyl for 88 hours, the concentrations of chloride and the corresponding chlorobenzoic acids (CBA) was assessed as described herein. The results from this experiment are depicted in FIG. 8.
The growth of SK-3 on dichloro-biphenyls was also assessed. […] The results of this experiment are depicted in FIG. 9.

[6] = substrate in heptamethyl nonane

| Molecule | Growth of SK-3 on the substrate as sole carbon source (bacterial strain SK-3 [1]) | Growth of SK-2 on the substrate as sole carbon source (bacterial strain SK-2) | Growth of SK-1 on the substrate as sole carbon source (bacterial strain SK-1) | Growth of SK-4 on the substrate as sole carbon source (bacterial strain SK-4 [2]) | Growth of SK-4 on the substrate as sole carbon source (bacterial strain SK-4 [3]; 100 milligrams per liter) | Chloride release on degradation by SK-4 (bacterial strain SK-4 [3]; [6]) | Chlorobenzoate production on degradation by SK-4 (bacterial strain SK-4 [3]; [6]) | Degradation of PCB congener in aerobic enrichment cultures [4] | Chloride and chlorobenzoic acid (CBA) formed on degradation by SK-3 (bacterial strain SK-3 [5]) | Release of chloride during degradation by SK-3 (bacterial strain SK-3 [5]; chloride by ion chromatography) |
| --- | --- | --- | --- | --- | --- | --- | --- | --- | --- | --- |
| 2,3,4-trichlorobenzoate | No | No | No | – | – | – | – | – | – | – |
| Clc1ccccc1-c1cccc(Cl)c1Cl [2,2′,3-TCBP] | No | No | No | No | – | – | – | – | – | – |
| Clc1ccc(Cl)c(-c2ccccc2Cl)c1 [2,2′,5-TCBP] | – | – | – | No | – | – | – | – | – | – |
| Clc1ccccc1-c1ccccc1Cl [2,2′-DCBP, 2,2′-dichlorobiphenyl] | No | No | No | exhibited growth and Yes | growth | stoichiometric release of chloride | completely transformed into 2-CBA | – | – | – |
| Clc1ccc(-c2ccc(Cl)cc2Cl)cc1 [2,4,4′-TCBP, 2,4,4′-trichlorobiphenyl] | – | – | – | – | – | – | – | degraded only in the bottles which contained biphenyl as a cosubstrate | – | – |
| Clc1cc(Cl)c(-c2ccccc2)c(Cl)c1 [2,4,6-TCBP, 2,4,6-trichlorobiphenyl] | – | – | – | – | – | – | – | degraded only in the bottles which contained biphenyl as a cosubstrate | – | – |
| Clc1ccc(Cl)c(-c2ccccc2)c1 [2,5-DCBP] | No | No | Likely | No | – | – | – | – | – | – |
| O=C(O)c1ccccc1Cl [2-chlorobenzoate] | No | No | No | No | – | – | – | – | – | – |
| Clc1ccccc1-c1ccccc1 [2-chlorobiphenyl] | Yes | Yes | Yes | Yes | – | – | – | – | partial release of chloride and production of 2-CBA | – |
| Clc1ccc(-c2ccccc2Cl)cc1Cl [2′,3,4-TCBP] | No | No | No | No | – | – | – | – | – | – |
| Clc1cccc(-c2cccc(Cl)c2)c1 [3,3′-DCBP] | No | – | – | No | – | – | – | – | – | – |
| Clc1cc(Cl)cc(-c2ccccc2)c1 [3,5-DCBP] | No | No | No | No | – | – | – | – | – | – |
| O=C(O)c1cccc(Cl)c1 [3-chlorobenzoate] | No | No | No | No | – | – | – | – | – | – |
| Clc1cccc(-c2ccccc2)c1 [3-chlorobiphenyl] | Yes | Yes | Yes | Yes | – | – | – | – | transformed 3-CB to 3-CBA without producing chloride | – |
| Clc1ccc(-c2ccc(Cl)cc2)cc1 [4,4′-DCBP] | No | – | – | No | – | – | – | – | – | – |
| Clc1ccc(-c2ccccc2)cc1 [4-chlorobiphenyl] | Yes | Yes | Yes | Yes | – | – | – | – | did not generate 4-CBA | stoichiometric production of chloride |
| O=C(O)c1ccccc1 [Benzoate] | Yes | Yes | Yes | Yes | – | – | – | – | – | – |
| c1ccc(-c2ccccc2)cc1 [Biphenyl] | Yes | Yes | Yes | Yes | – | – | – | – | – | – |
| O=C(O)CCl [Chloroacetate] | Yes | No | Yes | Yes | – | – | – | – | – | – |
| c1ccc2ccccc2c1 [Naphthalene] | No | No | No | No | – | – | – | – | – | – |
| Oc1ccccc1 [Phenol] | Yes | No | Yes | Yes | – | – | – | – | – | – |
